In ChEMBL document CHEMBL1154343, “Synthesis and biological evaluation of pyrrolopyridazine derivatives as novel HER-2 tyrosine kinase inhibitors” (Bioorg Med Chem Lett, 2009):

Experiments:
[1] = target: T1, Receptor tyrosine-protein kinase erbB-2 (Homo sapiens, UniProt P04626); assay: Inhibition of HER2 in human SKBR3 cells by HTRF assay
[2] = target: T2, Epidermal growth factor receptor (Homo sapiens, UniProt P00533); assay: Inhibition of EGFR by HTRF assay
[3] = target: T2, Epidermal growth factor receptor; assay: Inhibition of EGFR in human A431 cells by HTRF assay
[4] = target: T1, Receptor tyrosine-protein kinase erbB-2; assay: Inhibition of HER2 by HTRF assay

T1 sequence (P04626 whole entry): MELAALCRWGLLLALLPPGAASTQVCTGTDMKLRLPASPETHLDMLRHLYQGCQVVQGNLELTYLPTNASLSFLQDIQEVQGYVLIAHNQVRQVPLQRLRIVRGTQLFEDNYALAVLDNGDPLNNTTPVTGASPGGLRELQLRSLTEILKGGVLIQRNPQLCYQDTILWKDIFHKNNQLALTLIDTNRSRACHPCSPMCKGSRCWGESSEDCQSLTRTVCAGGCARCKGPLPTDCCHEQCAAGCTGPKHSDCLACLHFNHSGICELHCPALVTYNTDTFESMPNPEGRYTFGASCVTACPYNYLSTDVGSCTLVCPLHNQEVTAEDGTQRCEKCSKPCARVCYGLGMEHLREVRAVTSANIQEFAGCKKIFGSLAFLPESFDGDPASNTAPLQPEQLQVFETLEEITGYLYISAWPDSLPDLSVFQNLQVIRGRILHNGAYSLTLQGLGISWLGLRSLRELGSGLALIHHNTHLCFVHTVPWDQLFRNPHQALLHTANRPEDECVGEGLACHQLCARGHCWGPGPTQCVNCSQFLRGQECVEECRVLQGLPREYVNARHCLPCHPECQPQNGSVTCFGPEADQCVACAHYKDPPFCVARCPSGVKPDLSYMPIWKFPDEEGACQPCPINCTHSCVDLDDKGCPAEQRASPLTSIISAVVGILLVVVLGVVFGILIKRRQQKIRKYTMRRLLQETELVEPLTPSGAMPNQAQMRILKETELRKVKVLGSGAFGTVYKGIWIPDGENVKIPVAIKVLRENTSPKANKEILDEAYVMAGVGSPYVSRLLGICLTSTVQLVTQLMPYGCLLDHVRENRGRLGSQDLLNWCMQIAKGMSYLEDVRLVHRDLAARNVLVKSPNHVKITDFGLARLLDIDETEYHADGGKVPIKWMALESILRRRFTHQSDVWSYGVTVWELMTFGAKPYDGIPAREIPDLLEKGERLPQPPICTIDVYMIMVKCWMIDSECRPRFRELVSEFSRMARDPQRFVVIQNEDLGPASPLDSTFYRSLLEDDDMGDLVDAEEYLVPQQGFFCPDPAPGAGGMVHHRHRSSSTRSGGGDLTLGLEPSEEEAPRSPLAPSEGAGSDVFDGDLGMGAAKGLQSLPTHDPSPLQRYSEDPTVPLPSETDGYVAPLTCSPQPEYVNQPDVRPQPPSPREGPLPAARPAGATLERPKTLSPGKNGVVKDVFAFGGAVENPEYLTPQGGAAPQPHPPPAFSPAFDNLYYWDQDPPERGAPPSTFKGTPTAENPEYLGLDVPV
T2 sequence (P00533 whole entry): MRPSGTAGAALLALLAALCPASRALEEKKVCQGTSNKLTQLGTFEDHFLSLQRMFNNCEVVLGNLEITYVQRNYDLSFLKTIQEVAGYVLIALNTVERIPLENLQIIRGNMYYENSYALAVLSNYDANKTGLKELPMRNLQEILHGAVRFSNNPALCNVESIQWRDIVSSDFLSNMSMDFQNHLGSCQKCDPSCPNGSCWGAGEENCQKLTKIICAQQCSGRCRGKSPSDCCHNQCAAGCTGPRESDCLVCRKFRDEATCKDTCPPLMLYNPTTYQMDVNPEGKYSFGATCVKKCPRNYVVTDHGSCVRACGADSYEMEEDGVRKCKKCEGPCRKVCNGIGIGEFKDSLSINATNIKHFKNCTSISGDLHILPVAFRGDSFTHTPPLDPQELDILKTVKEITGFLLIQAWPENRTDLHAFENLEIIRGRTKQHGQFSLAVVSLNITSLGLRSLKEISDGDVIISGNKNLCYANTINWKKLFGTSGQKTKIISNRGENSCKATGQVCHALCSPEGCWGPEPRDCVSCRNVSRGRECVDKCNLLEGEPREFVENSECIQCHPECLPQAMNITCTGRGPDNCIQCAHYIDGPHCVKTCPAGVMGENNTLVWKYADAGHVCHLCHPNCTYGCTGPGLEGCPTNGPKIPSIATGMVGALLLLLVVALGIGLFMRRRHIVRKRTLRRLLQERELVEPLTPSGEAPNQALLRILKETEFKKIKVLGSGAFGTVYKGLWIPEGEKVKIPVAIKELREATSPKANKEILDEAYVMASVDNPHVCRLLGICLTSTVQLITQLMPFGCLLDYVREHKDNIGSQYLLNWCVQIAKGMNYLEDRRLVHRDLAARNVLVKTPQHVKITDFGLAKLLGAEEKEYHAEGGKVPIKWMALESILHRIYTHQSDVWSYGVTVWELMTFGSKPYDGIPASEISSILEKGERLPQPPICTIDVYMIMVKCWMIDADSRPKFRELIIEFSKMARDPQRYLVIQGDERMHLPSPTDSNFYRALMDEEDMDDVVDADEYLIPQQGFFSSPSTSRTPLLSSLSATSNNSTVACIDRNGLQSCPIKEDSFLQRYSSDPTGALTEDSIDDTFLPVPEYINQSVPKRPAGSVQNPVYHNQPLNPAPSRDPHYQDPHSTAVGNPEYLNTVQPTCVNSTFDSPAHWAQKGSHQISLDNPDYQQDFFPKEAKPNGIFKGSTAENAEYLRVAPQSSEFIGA

SMILES	IC50 [1]	IC50 [2]	IC50 [3]	IC50 [4]
CCN(CC)CCNC(=O)c1cc2cnnc(Nc3ccc(OCc4cccc(F)c4)c(Cl)c3)c2[nH]1	3840 nM	> 10000 nM	77200 nM	–
O=C(NCCN1CCCC1)c1cc2cnnc(Nc3ccc(OCc4cccc(F)c4)c(Cl)c3)c2[nH]1	620 nM	> 10000 nM	15100 nM	–
Cc1c(C(=O)NCCN2CCOCC2)[nH]c2cnnc(Nc3ccc(OCc4cccc(F)c4)c(Cl)c3)c12	> 5000 nM	5000 nM	12700 nM	4 nM
Cc1c(C(=O)NCCN2CCOCC2)[nH]c2cnnc(Nc3ccc(OCc4ccccn4)c(Cl)c3)c12	> 5000 nM	–	–	–
CCOC(=O)c1[nH]c(C)c2cnnc(Nc3ccc(OCc4cccc(F)c4)c(Cl)c3)c12	934 nM	> 10000 nM	1210 nM	–
Cc1c(C(=O)NCCCN2CCN(C)CC2)[nH]c2cnnc(Nc3ccc(OCc4cccc(F)c4)c(Cl)c3)c12	2240 nM	> 10000 nM	980 nM	–
Cc1c(C(=O)NCCN2CCN(C)CC2)[nH]c2cnnc(Nc3ccc(OCc4cccc(F)c4)c(Cl)c3)c12	843 nM	> 10000 nM	257 nM	–
CCN(CC)CCNC(=O)c1[nH]c2cnnc(Nc3ccc(OCc4cccc(F)c4)c(Cl)c3)c2c1C	960 nM	1280 nM	1160 nM	7 nM
